From paper PMC8615111, “Phenolic Thiazoles with Antioxidant and Antiradical Activity. Synthesis, In Vitro Evaluation, Toxicity, Electrochemical Behavior, Quantum Studies and Antimicrobial Screening” (Antioxidants, 2021) come the findings set out here.

In brackets after ≈: the same amount, converted by molar mass. Like-named read-outs stand apart in the source and are kept apart here. Bounds are passed on as bounds.

For one assay, the system named is HaCaT cells. Briefly: Cytotoxicity determination, MTT method. Type of assay: cell-based. The conditions noted are these: Homo sapiens, 24 h. The protocol: To determine the cytotoxic action of the obtained compounds 5[…], and 8a-b, a normal human keratinocytes cell line was used (HaCaT keratinocytes, CLS-300493, Eppelheim, Germany). HaCaT cells were cultured in Dulbecco's Modified Eagle Media (DMEM) supplemented with 1% L-glutamine, 1% penicillin-streptomycin, and 5% fetal bovine serum. At 80% confluence, the cells were transferred to 96 well plates at a confluence of 12×10^3 cells/well and left to attach for 24 h at 37°C and 5% CO2 in a humidified atmosphere. […] After 24 h, the culture media was replaced with 100 μL of MTT solution at a final concentration of 5 μg/mL/well and left to interact with the cells for 2 h in the incubator. After this, the MTT solution was replaced with 100 μL of isopropanol, left to dissolve the formazan crystals for 5 min, and read at 550 and 630 nm using a BioTek Epoch plate reader (BioTek Instruments, Winooski, VT, USA) and Gen5 software (version 1.09).
On the technique in general: Tetrazolium assays rely on reduction of a dye to a coloured formazan, in cell work by metabolically active cells.

Assay [1] in a line: DPPH˙ radical scavenging assay. Particulars: for IC50: DPPH˙ scavenging. Type of assay: biochemical. The protocol:
The 2,2-diphenyl-1-picrylhydrazyl (DPPH˙) radical scavenging assay is based on the transfer of one hydrogen from the analyzed compound to the violet radical DPPH˙. This will convert it to a yellow compound, the change in absorbance being proportional to the amount of DPPH˙ neutralized, according to Brand-Williams et al..
The preparation of the DPPH˙ reagent was previously reported by our group. […] Over the previous quantities, DMSO was added until a total volume of 50 µL was obtained in all cuvettes, and 1950 µL of DPPH˙ solution was added to all cuvettes; then, they were shaken for well over 10 min in the dark at room temperature. The absorbances of the solutions were measured at λ = 517 nm. The DPPH˙ radical scavenging activity of evaluated compounds was calculated using Equation (2):(2) DPPH scavenging (%)=control absorbance−sample absorbance/control absorbance×100
In general terms: The DPPH test is a chemical assay of radical scavenging.

Assay [2] in a line: TEMPO scavenging by differential pulse voltammetry. Particulars: 2 mM TEMPO, one hour incubation, 0.1 M HClO4, DPV. As for the experimental part:
The antioxidant properties were evaluated in terms of their activity against some free radicals, and other compounds reported in the literature, relevant for this purpose, such as: • ferric ions (Fe^3+)—used to test the reduction of the antioxidant character of the compounds; • DPPH˙ free radical– used to test the scavenging effect of the compounds on this radical; • hydrogen peroxide (H2O2)—used to test the scavenging effect of the synthesized molecules on this compound; • 2,2,6,6-tetramethylpiperidinyl-1-oxy (TEMPO)—used to test the scavenging effect of the synthesized molecules on this compound.
TEMPO (2,2,6,6-tetramethylpiperidine-N-oxyl) is a stable organic nitroxide radical that has been reported to scavenge carbon-centered radicals.
Differential pulse voltammetry (DPV) was then applied in order to evaluate the antioxidant effectiveness of the novel compounds through their ability to scavenge the free radical species.

Assay [3] is described as follows: ABTS˙^+ radical scavenging assay. The format is biochemical. The protocol: The assay was based on the decolorization of green (2,2′-azinobis-(3-ethylbenzothiazoline-6-sulfonic acid) ABTS˙^+ to ABTS, on the principle reported by Re et al. and was carried out according to our previously published research.
Later, 1950 µL of ABTS˙^+ reagent was added to all cuvettes and they were shaken for well over 10 min in the dark at room temperature. The absorbance of the resulted solutions found in cuvettes was determined spectrophotometrically at λ = 734 nm. The ABTS scavenging activity of the compounds was calculated using the following Equation (1):(1) ABTS scavenging (%)=control absorbance−sample absorbance/control absorbance×100

The test system of the next assay is E. coli ATCC 25922. Briefly: Antimicrobial activity, modified microdilution. The format is cell-based. Particulars: Escherichia coli, ATCC25922. As for the experimental part:
(§1) For evaluating the antimicrobial activity of the compounds, […] aerobic microbial strains were used: S. aureus ATCC 25923, S. pyogenes ATCC 19615, P. aeruginosa ATCC 27853, S. enterica ISM 83/37, S. typhimurium ATCC 14028, E. coli ATCC 8739, E. coli ATCC 25922, and C. albicans ATCC 102310 obtained from Food Biotechnology Laboratory, Life Sciences Institute, University of Agricultural Sciences, and Veterinary Medicine Cluj Napoca, where the experiment was performed. The antimicrobial activity of the compounds was determined using a modified microdilution technique, and the followed protocol was previously reported.
(§2) The antimicrobial activity of the final compounds, against seven aerobic microbial strains (S. aureus ATCC 25923, S. pyogenes ATCC 19615, P. aeruginosa ATCC 27853, S. enterica ISM 83/37, S. typhimurium ATCC 14028, E. coli ATCC 8739, E. coli ATCC 25922), and a fungal strain (C. albicans ATCC 102310), was determined using a modified microdilution technique.
(§3) The results of the antimicrobial activity evaluation of the compounds, in comparison to norfloxacin and chloramphenicol used as standard antibiotics and fluconazole used as reference antifungal, are depicted in Table 10.
In general terms: Broth dilution looks for growth in wells or tubes with falling amounts of substance.

Another assay concerns P. aeruginosa ATCC 27853. Briefly: Antimicrobial activity, modified microdilution. The format is cell-based. Particulars: Pseudomonas aeruginosa, ATCC27853. The protocol:
as §1, §2, §3

The test system of the next assay is S. aureus ATCC 25923. The assay is described as follows: Antimicrobial activity, modified microdilution. Type of assay: cell-based. Particulars: Staphylococcus aureus, ATCC25923. The protocol: as §1, §2, §3
In assay [4] the test system is S. typhimurium ATCC 14028. The assay is described as follows: Antimicrobial activity, modified microdilution. The format is cell-based. Particulars: Salmonella enterica. As for the experimental part: as §1, §2, §3
For another assay, the system named is S. pyogenes ATCC 19615. Briefly: Antimicrobial activity, modified microdilution. Type of assay: cell-based. The conditions noted are these: Streptococcus pyogenes, ATCC19615. The protocol:
as §1, §2, §3

The subject of the next assay is E. coli ATCC 8739. The assay is described as follows: Antimicrobial activity, modified microdilution. The conditions noted are these: Escherichia coli, ATCC8739. Type of assay: cell-based. As for the experimental part: as §1, §2, §3
For a further assay, the system named is S. enterica ISM 83/37. Briefly: Antimicrobial activity, modified microdilution. The format is cell-based. The conditions noted are these: Salmonella enterica, ISM83/37. As for the experimental part:
as §1, §2, §3

A further assay has as its system C. albicans ATCC 102310. The assay is described as follows: Antifungal activity, modified microdilution. The format is cell-based. Particulars: Candida albicans, ATCC102310. The protocol:
as §1, §2, §3

Assay [5] is described as follows: NO˙ radical scavenging assay (Griess reaction). The format is biochemical. The conditions noted are these: 100 µL of test solution 1 mg/mL in DMSO, 150 min, pH 7.4. As for the experimental part:
Scavenging of the NO˙ radical was performed according to some adapted protocols reported in the literature, based on the nitroprusside decomposition at physiological pH and colorimetric quantification of the resulted products using the Griess reaction.
Over 200 µL of 10 mM sodium nitroprusside, 100 µL of test solutions (1 mg/mL in DMSO), and 400 µL phosphate-buffered saline (PBS, pH = 7.4) were added. The mixture was then incubated at room temperature for 150 min on a rotating shaker (GFL Gesellschaft für Labortechnik, Burgwedel, Germany). After that, 1 mL of sulfanilic acid 0.33% in 20% acetic acid was added and after 5 min, 1 mL of naphthylethylenediamine […] 0.1% was added to all test tubes. After 30 min, the absorbance of the sample, given by the chromophore (azo dye) formed during the diazotization of nitrite ions resulting from decomposition of sodium nitroprusside with sulfanilic acid and coupled with naphthylethylenediamine, was measured at 546 nm. The NO˙ radical scavenging activity of the tested compounds was calculated using Equation (3):(3) NO˙ scavenging (%)=control absorbance−sample absorbance/control absorbance×100

The next assay can be described thus: Cu^2+ chelation assay. The format is biochemical.
Another assay can be described thus: Fe^2+ chelation assay. Type of assay: biochemical. As for the experimental part: The protocol used for assessing Fe^2+ chelating capacity of the compounds was adapted from a report of Benzie and Strain and previously reported by our group. The iron(II) chelation ability of compounds was calculated using Equation (7):(7) iron chelation (%)=control absorbance−sample absorbance/control absorbance×100
The chelating potential for the ferrous ions of the new compounds was determined, based on their competition for Fe^2+ with ferrozine.

For `O=C1O[C@H]([C@@H](O)CO)C(O)=C1O` [Ascorbic acid, reference compound], the IC50 with HaCaT cells (HaCaT) turned out to be 22.8 µg/mL; in the assay on HaCaT cells (HaCaT cells, MTT, read-out: IC50), 129 µM; in assay [1], 2.89 µg/mL (≈ 16.4 µM); in [3] (ABTS˙^+ scavenging), 1.97 µg/mL (≈ 11.2 µM). In addition, the “% of DPPH˙ Scavenged” value in assay [1] (1 µg/mL) is 19.39%; in assay [1] (1.5 µg/mL) it was 29.10%; in assay [1] (2 µg/mL) it was 38.27%; in [1] (3 µg/mL), 53.42%; in [1] (5 µg/mL), 80.28%. Also, in [2], the “oxidation signal for TEMPO after incubation with the compound” value is “decreases”. Besides, the “% of ABTS˙^+ Scavenged” value in assay [3] (0.5 µg/mL) turned out to be 9.56%; in assay [3] (0.75 µg/mL), 14.32%; in assay [3] (1 µg/mL), 20.61%; in assay [3] (1.5 µg/mL), 38.24%; in [3] (2.5 µg/mL), 64.58%.
For the molecule `O=C(N[C@H](CO)[C@H](O)c1ccc([N+](=O)[O-])cc1)C(Cl)Cl` [Chloramphenicol, reference compound], the minimal inhibitory concentration (MIC) against E. coli ATCC 25922 is 3.9 µg/mL (≈ 12.1 µM); against P. aeruginosa ATCC 27853, 0.48 µg/mL (≈ 1.49 µM); against S. aureus ATCC 25923 it was 7.8 µg/mL (≈ 24.1 µM); in [4] it was below 0.48 µg/mL; in the assay on S. pyogenes ATCC 19615, 3.9 µg/mL (≈ 12.1 µM); in the assay with E. coli ATCC 8739, 7.8 µg/mL (≈ 24.1 µM). Moreover, in the assay on S. enterica ISM 83/37, the MIC worked out at 3.9 µg/mL (≈ 12.1 µM).
`OC(Cn1cncn1)(Cn1cncn1)c1ccc(F)cc1F` [Fluconazole, reference compound] gave a minimal inhibitory concentration (MIC) in the assay on C. albicans ATCC 102310 of 31.2 µg/mL (≈ 102 µM).
For `O=C(O)c1cc(O)ccc1O` [Gentisic acid, reference compound], in assay [5], the “% of NO˙ Scavenged” value is 47.33%.
On to `CCn1cc(C(=O)O)c(=O)c2cc(F)c(N3CCNCC3)cc21` [Norfloxacin, reference compound], for which the MIC in the assay on E. coli ATCC 25922 was 7.8 µg/mL (≈ 24.4 µM); against P. aeruginosa ATCC 27853 it was 7.8 µg/mL (≈ 24.4 µM); with S. aureus ATCC 25923 it was 0.48 µg/mL (≈ 1.5 µM); in assay [4], below 0.48 µg/mL; against S. pyogenes ATCC 19615, below 0.48 µg/mL; in the assay with E. coli ATCC 8739 it was below 0.48 µg/mL. In the assay on S. enterica ISM 83/37, the minimal inhibitory concentration (MIC) is below 0.48 µg/mL.
Regarding `Cc1c(C)c2c(c(C)c1O)CCC(C)(C(=O)O)O2` (centres unmarked) [Trolox, reference compound], the “% of DPPH˙ Scavenged” value in [1] (1 µg/mL) is reported as 10.83%; in assay [1] (1.5 µg/mL), 17.10%; in assay [1] (2 µg/mL), 20.56%; in assay [1] (3 µg/mL), 31.91%; in assay [1] (5 µg/mL), 53.67%. Further, in [1], the IC50 is 4.68 µg/mL (≈ 18.7 µM). Moreover, the “% of NO˙ Scavenged” value in [5] stood at 32.12%.
As to “disodium salt of ethylenediaminetetraacetic acid [EDTA-Na2, reference compound]”, the “Chelation Capacity (%), cupric ions” value was 12.36% in “Cu^2+ chelation assay” (3.36 µg/mL); 19.61% in the assay “Cu^2+ chelation assay” (6.72 µg/mL); 29.97% in the assay “Cu^2+ chelation assay” (10.08 µg/mL); 39.18% in “Cu^2+ chelation assay” (13.44 µg/mL); 45.86% in the assay “Cu^2+ chelation assay” (16.80 µg/mL). Moreover, the “Chelation Capacity (%), ferrous ions” value is given as 20.86% in the assay “Fe^2+ chelation assay” (50 µg/mL), 57.32% in “Fe^2+ chelation assay” (100 µg/mL), above 95.00% in the assay “Fe^2+ chelation assay” (150 µg/mL) and above 95.00% in the assay “Fe^2+ chelation assay” (200 µg/mL).

As usually defined, the IC50 is the concentration that gives 50% inhibition. For orientation: MIC means the least concentration at which growth counts as inhibited. A lower MIC goes with a more susceptible organism.
